Test results reported in the Kinase Knowledgebase extract (Sharma et al. 2016).

Target: PIK3CG (human) (UniProt P48736)
Test: Inhibition of PIK3CG Kinase Activity

Chain of PIK3CG (human) (P48736 whole entry, looked up): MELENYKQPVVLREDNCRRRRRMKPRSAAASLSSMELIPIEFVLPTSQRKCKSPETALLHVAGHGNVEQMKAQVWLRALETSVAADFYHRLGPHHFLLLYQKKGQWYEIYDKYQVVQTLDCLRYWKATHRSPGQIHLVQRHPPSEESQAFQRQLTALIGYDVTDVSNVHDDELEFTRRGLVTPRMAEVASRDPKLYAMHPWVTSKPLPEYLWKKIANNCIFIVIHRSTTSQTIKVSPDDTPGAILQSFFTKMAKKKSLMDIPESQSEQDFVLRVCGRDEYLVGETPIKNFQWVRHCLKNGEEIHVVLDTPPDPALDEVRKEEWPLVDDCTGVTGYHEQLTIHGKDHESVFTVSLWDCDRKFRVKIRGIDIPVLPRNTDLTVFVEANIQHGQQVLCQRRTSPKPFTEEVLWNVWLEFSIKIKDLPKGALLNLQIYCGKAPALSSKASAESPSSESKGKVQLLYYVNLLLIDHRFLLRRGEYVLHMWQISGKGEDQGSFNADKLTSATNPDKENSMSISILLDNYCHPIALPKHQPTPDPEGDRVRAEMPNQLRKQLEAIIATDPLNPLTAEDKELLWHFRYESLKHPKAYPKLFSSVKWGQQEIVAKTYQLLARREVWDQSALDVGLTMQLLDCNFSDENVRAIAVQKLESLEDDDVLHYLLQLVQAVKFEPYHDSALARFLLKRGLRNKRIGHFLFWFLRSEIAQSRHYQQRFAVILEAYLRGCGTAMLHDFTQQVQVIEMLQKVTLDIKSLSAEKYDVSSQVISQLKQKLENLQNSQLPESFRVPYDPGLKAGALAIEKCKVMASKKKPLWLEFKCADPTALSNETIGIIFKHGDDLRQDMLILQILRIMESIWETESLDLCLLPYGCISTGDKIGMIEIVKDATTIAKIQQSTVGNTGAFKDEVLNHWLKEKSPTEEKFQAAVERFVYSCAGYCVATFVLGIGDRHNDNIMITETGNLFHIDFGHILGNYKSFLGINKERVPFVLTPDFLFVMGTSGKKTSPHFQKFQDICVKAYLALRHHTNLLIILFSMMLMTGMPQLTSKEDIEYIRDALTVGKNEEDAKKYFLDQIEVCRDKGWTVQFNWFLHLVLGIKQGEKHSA

Ki [µM] | SMILES
< 0.1 | CC(=O)Nc1cncc(-c2cc(C)c3c(n2)C(C)(C)N(c2cnn(CC(F)(F)F)c2)C3=O)c1
< 0.1 | Cc1cc(-c2cncc(OC(F)F)c2)cc2c1C(=O)N(c1cnn(CC(F)(F)F)c1)C2C (configuration not stated)
< 0.1 | CCn1cc(N2Cc3nc(-c4cncc(OC(F)F)c4)cc(C)c3C2=O)cn1
< 0.1 | CCNC(=O)c1cc(-c2cc(C)c3c(n2)C(C)(C)N(c2cnn(CC(F)F)c2)C3=O)cnc1OC
< 0.1 | COc1cncc(-c2cc(C)c3c(n2)CN(c2cnn(CC(F)F)c2)C3=O)c1
< 0.1 | Cc1cc(-c2cncc(C(F)(F)F)c2)nc2c1C(=O)N(c1cnn(CC#N)c1)C2
< 0.1 | COc1ncc(-c2ccc3c(n2)C(C)N(c2cnn(CC(F)(F)F)c2)C3=O)cc1O (configuration not stated)
< 0.1 | Cc1cc(-c2cncc(OC(F)F)c2)nc2c1C(=O)N(c1ccnc(OCC(F)F)c1)C2C (configuration not stated)
< 0.1 | COc1cncc(-c2cc(C)c3c(n2)C2(CCOCC2)N(c2cnn(CC(F)(F)F)c2)C3=O)c1
< 0.1 | Cc1cc(-c2cncc(OCC(F)(F)F)c2)nc2c1C(=O)N(c1cnn(CC(F)(F)F)c1)C2(C)C
< 0.1 | COc1cc(-c2cc(C)c3c(n2)CN(c2cnn(C(C)(C)C(N)=O)c2)C3=O)cnc1OC
< 0.1 | CCn1cc(N2Cc3nc(-c4cnc(OC)c(OC)c4)ccc3C2=O)cn1
0.1 to 0.49 | CCCOCCOc1ncc(-c2cc(C)c3c(n2)CN(c2cnn(CC(F)(F)F)c2)C3=O)cc1OC
< 0.1 | CCC(O)c1ncc(N2Cc3nc(-c4cnc(OC)c(OC)c4)cc(C)c3C2=O)cn1 (configuration not stated)
0.1 to 0.49 | COc1cc(-c2ccc3c(n2)CN(c2ccc(N(C)CC4OCCO4)nc2)C3=O)cnc1OC
< 0.1 | COc1cc(-c2cc(C)c3c(n2)[C@](C)(O)N(c2cnn(CC(F)(F)F)c2)C3=O)cnc1OC
< 0.1 | COc1cncc(-c2cc(C)c3c(n2)C2(CCCO2)N(c2cnn(CC(F)(F)F)c2)C3=O)c1 (configuration not stated)
< 0.1 | COc1ncc(-c2ccc3c(n2)[C@H](C)N(c2cnn(CC(F)(F)F)c2)C3=O)cc1O
< 0.1 | COCc1cc(N2Cc3nc(-c4cnc(OC)c(OC)c4)ccc3C2=O)n[nH]1

Ki [µM] | SMILES
< 0.1 | COc1cc(-c2cc(C)c3c(n2)C(OCC(F)(F)F)N(c2cnn(CC(F)(F)F)c2)C3=O)cnc1OC (configuration not stated)
0.1 to 0.49 | COc1cc(-c2ccc3c(n2)CN(c2ccon2)C3=O)cnc1O
< 0.1 | COc1cc(-c2cc(C)c3c(n2)CN(c2cncc(CN(C)C)c2)C3=O)cnc1OC
< 0.1 | CCn1ccc(N2C(=O)c3c(C)cc(-c4cncc(OC(F)F)c4)nc3C2C)n1 (configuration not stated)
< 0.1 | COc1cc(-c2ccc3c(n2)CN(c2ccc(N4CCC(O)CC4)nc2)C3=O)cnc1OC
< 0.1 | COc1cc(-c2cc(C)c3c(n2)CN(c2ccc(OCC(F)F)nc2)C3=O)cnc1OC
< 0.1 | COc1cncc(-c2cc(C)c3c(n2)C(C)N(c2csc(C)n2)C3=O)c1 (configuration not stated)
< 0.1 | Cc1cc(-c2cncc(OC(F)F)c2)nc2c1C(=O)N(c1cnn(CC(F)(F)F)c1)C2(C)C
< 0.1 | COc1cncc(-c2cc(C)c3c(n2)C2(CC2)N(c2cnn(CC(F)(F)F)c2)C3=O)c1
< 0.1 | CCO[C@@]1(C)c2nc(-c3cnc(OC)c(OC)c3)cc(C)c2C(=O)N1c1cnn(CC(F)(F)F)c1
< 0.1 | COc1cc(-c2ccc3c(n2)[C@H](C)N(c2ccnc(CC#N)c2)C3=O)cnc1OC
< 0.1 | COc1cncc(-c2cc(C)c3c(n2)[C@@H](OC)N(c2cnn(CC(F)(F)F)c2)C3=O)c1
< 0.1 | CCOc1cncc(N2Cc3nc(-c4cnc(OC)c(OC)c4)cc(C)c3C2=O)c1
< 0.1 | CNC(=O)c1cncc(-c2cc(C)c3c(n2)C(C)(C)N(c2cnn(CC(F)(F)F)c2)C3=O)c1
< 0.1 | C=C(F)Cn1cc(N2C(=O)c3ccc(-c4cnc(OC)c(OC)c4)nc3C2(C)C)cn1
< 0.1 | Cc1cc(-c2cncc(S(=O)(=O)NC(C)C)c2)nc2c1C(=O)N(c1cnn(CC(F)(F)F)c1)C2(C)C
< 0.1 | CCc1cc(N2Cc3nc(-c4cnc(OC)c(OC)c4)cc(C)c3C2=O)nn1CC
< 0.1 | COc1cc(-c2cc(C)c3c(n2)C2(CCOCC2)N(c2cnn(C(C)(C)C#N)c2)C3=O)cnc1OC
